According to US20250009734A1, “METHODS OF INHIBITING FOXO1 FOR TREATMENT OF LYMPHATIC DISORDERS” (UNIVERSITY OF SOUTH FLORIDA, priority 2023, published 2025):

Columns and labels:
Foxc2^+/CreERT2 mice [1] = assay: Mesenteric lymphatic valve counting after i.p. injection in pups; assay type: in vivo, mouse
From the text: FIGS. 3A-3F. AS1842856 treatment in vivo increases valve number in Foxc2^+/CreERT2 mice. (A) Schematic illustration of AS1842856 injection procedure in postnatal day (P) 7-21 pups. (B-E) Fluorescent images showing the morphology of mesenteric collecting lymphatic vessels at P21. Mesenteries are from Prox1-GFP with DMSO (vehicle control) injection (B); Prox1-GFP with AS1842856 injection (C); Foxc2^+/CreERT2; Prox1-GFP with DMSO injection (D); Foxc2^+/CreERT2; Prox1-GFP with AS1842856 injection (E). (F) Quantification of valves per millimeter at P21 from 4 groups of mice. 4 mice are used for the analysis. All values are mean±SEM. Two-way ANOVA was performed with Turkey's multiple comparisons. ns=not significant, *p≤0.05, ***p<0.001. Scale bar is 1000 μm.
(§1) Foxc2 is a chief regulator of lymphatic valve development modulating the expression of many valve genes (Sabine et al., 2015). While Foxc2 null animals are embryonic lethal, the Foxc2 heterozygous mice are a model of the human disease lymphedema-distichiasis with severe lymphatic valve loss (Kriederman et al., 2003, Petrova et al., 2004). To test whether AS1842856 treatment increases valve growth in vivo, the inventors intraperitoneally (i.p.) injected AS1842856 into Foxc2^+/CreERT2 pups. Instead of using wildtype pups as control, Prox1-GFP mice were used as control as well as for visualizing the lymphatic vasculature (Choi et al., 2011). The Foxc2^+/CreERT2 pups were also bred to carry the Prox1-GFP allele. Since the open reading frame in one allele of the Foxc2 gene is replaced with the cDNA for CreERT2, the Foxc2^+/CreERT2 mice is heterozygous for Foxc2 gene (Geng et al., 2016). […] To compare the number of valves from these 4 groups, the inventors counted total number of valves from 6 branches (from the lymph nodes to the gut wall) in the mesentery and measured the total length of these branches as previously published (Scallan et al., 2021). […]
TM administered postnatal pups were euthanized using an IACUC approved method and the colleting lymphatics were analyzed at the experimental timepoints. […]

Foxc2^+/CreERT2 mice [2] = assay: Whole-mount immunostaining of mesenteric collecting lymphatic vessels after injection; assay type: in vivo, mouse
From the text: FIG. 4. AS1842856 injection promotes b-catenin nuclear localization in vivo. Panels A-P′ show whole-mount immunostaining of P10 mesenteric collecting lymphatic vessels from wildtype and Foxc2^+/CreERT2 pups with vehicle control (DMSO) or AS1842856 injection. Prox1 in green, Ctnnb1 in purple, and VE-cadherin in gray. A′-P′ are the higher magnification images of the white box areas in A-P. Scale bars are 100 μm.
as §1, with “Instead of using wildtype pups as control, Prox1-GFP mice were used as control as well as for visualizing the lymphatic vasculature (Choi et al., 2011). The Foxc2^+/CreERT2 pups were also bred to carry the Prox1-GFP allele.” left out

FOXO1 = FOXO1 (Homo sapiens, UniProt Q12778); settings: binds to FOXO1 protein, prevents binding to promoter regions; Nagashima et al., 2010; cited from earlier work
FOXO1, sequence (Q12778 whole entry, species assumed): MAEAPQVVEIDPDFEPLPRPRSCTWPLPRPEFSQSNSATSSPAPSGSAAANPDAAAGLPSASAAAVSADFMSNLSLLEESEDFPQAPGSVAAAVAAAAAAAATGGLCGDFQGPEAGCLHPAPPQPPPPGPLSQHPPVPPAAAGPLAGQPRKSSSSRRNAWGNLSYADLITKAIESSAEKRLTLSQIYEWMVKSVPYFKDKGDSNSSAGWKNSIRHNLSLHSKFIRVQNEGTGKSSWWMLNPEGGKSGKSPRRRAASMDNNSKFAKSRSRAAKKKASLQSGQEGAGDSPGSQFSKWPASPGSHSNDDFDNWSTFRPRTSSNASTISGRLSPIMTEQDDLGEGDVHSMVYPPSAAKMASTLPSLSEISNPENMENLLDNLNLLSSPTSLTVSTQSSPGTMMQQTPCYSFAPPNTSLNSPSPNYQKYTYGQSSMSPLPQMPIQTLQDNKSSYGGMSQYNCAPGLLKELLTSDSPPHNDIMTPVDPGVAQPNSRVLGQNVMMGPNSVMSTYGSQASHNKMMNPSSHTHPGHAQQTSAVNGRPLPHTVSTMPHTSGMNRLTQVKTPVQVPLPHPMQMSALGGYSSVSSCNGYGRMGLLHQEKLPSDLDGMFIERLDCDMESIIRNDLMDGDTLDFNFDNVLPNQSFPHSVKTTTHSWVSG

In the case of `CCn1cc(C(=O)O)c(=O)c2c(N)c(F)c(NC3CCCCC3)cc21` [AS1842856], the valves/mm in mesentery (Foxc2^+/CreERT2 mice [1]; Foxc2^+/CreERT2 pups with AS1842856 injection (8 mg/kg i.p. every other day P7-P21) vs Foxc2^+/CreERT2 pups with DMSO injection) is reported as “significantly higher”, the valves/mm in mesentery (Foxc2^+/CreERT2 mice [1]; Foxc2^+/CreERT2 pups with AS1842856 injection (8 mg/kg i.p. every other day P7-P21) vs Prox1-GFP pups with DMSO injection) is reported as “still significantly lower” and the valves/mm in mesentery (Foxc2^+/CreERT2 mice [1]; Prox1-GFP pups with AS1842856 injection (8 mg/kg i.p. every other day P7-P21) vs Prox1-GFP pups with DMSO injection) is reported as “no significant difference”. The “valves expressing Itga9 (whole-mount immunostaining)” value (Foxc2^+/CreERT2 mice [2]; AS1842856 treated Foxc2^+/CreERT2 pups) was “all the valves”, the “nuclear localization of β-catenin in mesenteric LECs in vivo” value (Foxc2^+/CreERT2 mice [2]; P10 mesenteries after two injections, wildtype and Foxc2^+/CreERT2 pups, vs DMSO injected group) was “increased nuclear purple staining from β-catenin” and the “effect on transcription activity of FOXO1 in the nucleus” value (FOXO1) was “reduces the transcription activity of FOXO1”.
